# Test results from patent publication US5880157A, “Derivatives of tetramethylcyclopropane” (Yissum Research Development Company of the Hebrew …, priority 1994, dated 1999).
# Assays:
# [1] = tested on: maximal electroshock seizure (MES); experiment: maximal electroshock seizure (MES) test, rats; details: for ED50: Rattus norvegicus, read-out: MES ED50; for MES PI (protective index, TD50/ED50) / effective dose in the MES test (ED50) compared with Valproic Acid: rats; for effective dose in the MES test (ED50) compared with Valproic Acid: in words
# Source text: (§1) All compounds described before were screened for their ability to protect against seizures in two different models of epilepsy: the maximal electroshock seizure (MES) model; and the subcutaneous pentylenetetrazol (Metrazol) seizure threshold (s.c.Met) test. Agents effective in the MES model have been correlated with the ability to prevent the seizure spread, whereas those agents effective in the s.c. Met model have been correlated with the ability to raise the threshold for excitation of neural tissue. The PI value, the protective index, is calculated as described below.
# (§2) The MES test is the most commonly used test to assess activity against these types of seizures.
# [2] = tested on: subcutaneous pentylenetetrazol (Metrazol) seizure threshold; experiment: subcutaneous pentylenetetrazol (Metrazol) seizure threshold (s.c. Met) test, rats; details: for ED50: Rattus norvegicus, sc, read-out: scMet ED50; for scMet PI (protective index, TD50/ED50): rats
# Source text: as §1, §2
# [3] = tested on: maximal electroshock seizure (MES); experiment: maximal electroshock seizure (MES) test, mice; details: for ED50: Mus musculus, read-out: MES ED50; for MES PI (protective index, TD50/ED50) / effective dose in the MES test (ED50) compared with Valproic Acid: mice; for effective dose in the MES test (ED50) compared with Valproic Acid: in words
# Source text: as §1, §2
# [4] = tested on: subcutaneous pentylenetetrazol (Metrazol) seizure threshold; experiment: subcutaneous pentylenetetrazol (Metrazol) seizure threshold (s.c. Met) test, mice; details: for ED50: Mus musculus, sc, read-out: scMet ED50; for scMet PI (protective index, TD50/ED50): mice; for effective doses in the s.c. Met test compared with VPA or ETS: mouse model, in words
# Source text: as §1, §2
# [5] = neurotoxicity, positional sense test and gait and stance test, rats (p.o.); type: in vivo, rat
# Protocol: (§3) Neurotoxicity of the described compounds was assessed in mice (i.p. administration) by the rotorod ataxia test (See Swinyard et al., Supra, pages 85-100), and also in some cases in rats (p.o. administration) by the positional sense test and gait and stance test (see Swinyard above) .
# [6] = neurotoxicity, rotorod ataxia test, mice (i.p.); type: in vivo, mouse
# Protocol: as §3
# [7] = in words; literature; cited from earlier work
Compound,ED50 [1] [mg/kg],"MES PI (protective index, TD50/ED50) [1]",effective dose in the MES test (ED50) compared with Valproic Acid [1],ED50 [2] [mg/kg],"scMet PI (protective index, TD50/ED50) [2]",ED50 [3] [mg/kg],"MES PI (protective index, TD50/ED50) [3]",effective dose in the MES test (ED50) compared with Valproic Acid [3],ED50 [4] [mg/kg],"scMet PI (protective index, TD50/ED50) [4]",effective doses in the s.c. Met test compared with VPA or ETS [4],TD50 (median neurological toxic dose) [5] [mg/kg],"TD50 ([6]; mouse, ip, read-out: TD50 (median neurological toxic dose)) [mg/kg]","TD50 ([5]; rat, po, read-out: TD50 (median neurological toxic dose)) [mg/kg]",TD50 (median neurological toxic dose) [6] [mg/kg],adverse side effects [7]
"CNC(=O)C1C(C)(C)C1(C)C [Compound 1, N-Methyl-2,2,3,3-tetramethylcyclopropanecarboxamide]",82,2.0,lower effective dose in the MES test,45,3.6,98,0.8,lower effective dose in the MES test,39,2.1,lower than that found for either VPA or ETS,163,83,–,–,–
"CC1(C)C(C(=O)NCC(N)=O)C1(C)C [Compound 2, N-[(2,2,3,3-Tetramethylcyclopropyl)carbonyl]-glycinamide]",82,> 6.1,lower effective dose in the MES test,> 250,–,173,1.5,lower effective dose in the MES test,115,2.3,lower than that found for either VPA or ETS,–,–,> 500,259,–
"CC1(C)C(C(N)=O)C1(C)C [Compound 3, 2,2,3,3-Tetramethylcyclopropanecarboxamide]",> 250,–,–,52,7.3,> 120,–,–,57,1.7,lower than that found for either VPA or ETS,381,–,–,99,–
"CCC1(C)CC(=O)NC1=O (stereo not shown) [ETS, Ethosuximide, reference compound]",> 1200,–,–,54,–,> 1000,–,–,130,–,–,–,–,–,441,–
"CCCC(CCC)C(=O)O [Valproic Acid, reference compound]",490,–,–,180,–,–,–,–,149,–,–,–,–,–,–,considerable adverse side effects including hepatoxicity and teratogenicity
